Measured values published in patent publication US9675576B2, “Polyenolic zinc-binding agents (pezbins) actively promote inactivation of cancer stem cells and potentiate cytotoxic anti-tumor drug substances” (The Research Foundation for The State University of New York, priority 2012, dated 2017).

Assays:
[1] = in vivo; cited from earlier work
[2] = tested on: prostate CD133+ cells (PPT2 and PC3MM2); assay: MTT cytotoxicity assay, results stated for prostate CD133+ cells without split by line; type: cell-based, human
Protocol: (§1) The CSC-specific cytotoxic effects were studied in two different settings both of which are known to maintain/promote sternness phenotype: adherent to type I collagen cultures and 3D cultures of floating spheroids (Baretton, G. B. 1994; Miyoshi, Y. 2000; Koivisto, P. 1995). The CD133^high/CD44^high cells (1×10^3 cells/well) isolated either from PPT2 or PC3MM2 cell lines were seeded onto the type I collagen-coated 96-well plates, cultured in the MSCGM for 2 days, and the treatment was initiated upon 90% confluency. Paclitaxel, SBT-1214 and CMC2.24 were dissolved in sterile DMSO and then serially diluted in MSCGM. For testing the SBT-1214/CMC2.24 combination efficacy, the regular MSCGM was replaced with treatment medium containing SBT-1214 or Ptx at selected concentration range (from 10 nM to 10 μM) with 30 μM CMC2.24. Treatment medium was removed 24, 48 or 72 hr later, followed by return to the MSCGM. Cell death was analyzed on adherent type I collagen cell cultures with the MTT assay [MTT=3-(4,5-dimethylthiazol-2-yl)-2,5-diphenyltetrazolium bromide] as recommended by manufacturer (Invitrogen). Spheroids were cultured and treated on ULA plates.
(§2) The dose-response cytotoxicity of SBT-1214, CMC2.24/and their combination was evaluated by standard MTT assay (all of the in vitro experiments were repeated at least three times and each measurement for the MMT assay was performed in 4 repeats). The dose-response points were plotted as a percentage of the untreated control, the absorbance of which was considered as 100%. Data were expressed as means±SD for each drug concentration. The in vivo responses to drug treatment were evaluated as changes in tumor volume of drug-treated versus untreated control xenografts induced by particular type of cells. Data were expressed as means±SD for control and drug treated tumors. The statistical significance of differences was determined using Student's t-test. The parameters used were the two-tailed distribution and the paired test. P<0.05 was considered statistically significant.

[3] = tested on: CSC-relevant transcription factors in colon cancer HCT116 CD133+ and prostate xPT2 CD133+ cells; assay: PCR array of stem cell-related transcription factors, colon and prostate CD133+ cells; type: cell-based, human; details: CMC2.24 as stated in Example 2
Protocol: Stem cell-specific gene expression profiles were studied with the PCR Array assay (SABiosciences, CA) in accordance with the manufacturer's recommendations. Briefly, total RNA was isolated from different cell populations (cancer stem cells expressing high levels of the CD133 and CD44, or whole floating spheroids that are enriched with CSCs) using PARIS kit (Ambion). Up to 1 μg of total RNA was treated with DNase and cDNA was prepared using RT^2 First Strand kit. For each analysis, pairs of the test and control cDNA samples were mixed with RT^2 qPCR Master mix and distributed across the PCR array 96-well plates, each of which contained 84 stem cell-related probes and control housekeeping genes. After cycling with real-time PCR (Opticon MJ Research or ABI 7300, Applied Biosystems), obtained amplification data (fold-changes in Ct values of all the genes) was analyzed with SABiosciences software.

[4] = tested on: PPT2 and PC3MM2 cell lines; assay: FACS analysis of CD133 expression after drug treatment; type: cell-based, human
From the text: To ensure more reliable isolation of CSCs, cells were labeled with one or several markers conjugated with different fluorescent dyes, including anti-human CD133/2-APC (clone 293C3; Miltenyi Biotec, CA, USA); CD166-PE (clone 105902; R&D Systems, MN, USA); CD44-FITC (clone F10-44-2), CD44-PE (clone F10-44-2; Invitrogen/Biosources, USA); CD44v6-FITC (clone 2F10; R&D Systems, USA), EpCAM-FITC (Biosource, CA, USA), Pan-Keratin (C11)-Alexa Fluor® 488 (Cell Signaling) and all the isotype controls (Chemicon). Antibodies were diluted in buffer containing 5% BSA, 1 mM EDTA and 15-20% blocking reagent (Miltenyi Biotec) to inhibit unspecific binding to non-target cells. After 15 min incubation at 4° C., stained cells were sorted and analyzed with multiparametric flow cytometer BD FACSAria (Becton Dickinson, CA). Alternatively, dissociated cells were centrifuged at 950 g for 5 min at 4° C., rinsed with sterile MACS buffer (Miltenyi Biotec, CA) and labeled with CD133 Abs directly or indirectly conjugated with ferromagnetic beads (Miltenyi Biotec, CA) as recommended by manufacturer.
as §1, with “For testing the SBT-1214/CMC2.24 combination efficacy, the regular MSCGM was replaced with treatment medium containing SBT-1214 or Ptx at selected concentration range (from 10 nM to 10 μM) with 30 μM CMC2.24. Treatment medium was removed 24, 48 or 72 hr later, followed by return to the MSCGM.” left out, “Spheroids were cultured and treated on ULA plates.” left out

p53 and p21 = assay: Western blot of pro-apoptotic proteins; type: cell-based, human; details: CD133+ and bulk PPT2 cells, previously not expressed
Protocol: (§3) Cells were lysed using Active Motif Nuclear Co-ip kit according to manufacturer's protocol. 20 μg of enriched nuclear and cytoplasmic extracts was subjected to electrophoresis in 10% polyacrylamide gel. The proteins were then transferred to a nitrocellulose membrane and developed with appropriate antibodies.

c-Myc, Sox-2 and Oct4 = assay: Western blot of key transcription factors; type: cell-based, human
Protocol: as §3

CD133hi cells = assay: Number of CD133hi cells after taxol, stemness-promoting cultures (FIG. 1); type: cell-based
Protocol: FIG. 1: The standard anti-cancer drug Taxol increases the ratios (shown by FACS analyses of cells with high expression of CD133) and actual number of CSCs (shown at right graph). CSC-enriched cell populations were cultured and treated in vitro under stemness-promoting condition, i.e. adherent to type I collagen (upper left panels) and as floating 3D spheroids (low left panels) in serum-free stem cell medium (MSCBM, Lonza).
Before any assays, particular cells were isolated using immunomagnetic and FACS cell sorting, characterized with FACS analysis and cultured under the stemness-promoting conditions (repeated cell sorting; serum-free stem cell medium; Lonza; low cell density; type I collagen-coated surfaces; non-adherent culturing on ultra-low adherent plates; Corning).

CD133+ PPT2 cells = type: cell-based, human; details: 72 hours, 10 nM-10 μM
Protocol: as §1, §2

CD133+ PC3MM2 cells = assay: MTT cytotoxicity assay, CD133+ PC3MM2 cells on type I collagen; type: cell-based, human; details: 72 hours, 10 nM-10 μM
Protocol: as §1, with “For testing the SBT-1214/CMC2.24 combination efficacy, the regular MSCGM was replaced with treatment medium containing SBT-1214 or Ptx at selected concentration range (from 10 nM to 10 μM) with 30 μM CMC2.24. Treatment medium was removed 24, 48 or 72 hr later, followed by return to the MSCGM.” left out, “Spheroids were cultured and treated on ULA plates.” left out
as §2, with “The in vivo responses to drug treatment were evaluated as changes in tumor volume of drug-treated versus untreated control xenografts induced by particular type of cells.” left out, “The parameters used were the two-tailed distribution and the paired test. P<0.05 was considered statistically significant.” left out

Compound: O=C(/C=C/c1ccc(O)cc1)C(C(=O)/C=C/c1ccc(O)cc1)C(=O)Nc1ccccc1 [CMC2.24]
- systemic toxicity [1]: no systemic toxicity
- effect on cells, higher doses ([2]; 10-40 μM, 72 hr): increasingly cytotoxic
- concentration dependence of effect on prostate CD133+ cells ([2]; single agent): biphasic effects
- effect on cell proliferation, low concentrations ([2]; up to 10 μM, 72 hr): stimulated cell proliferation
- inhibition of CSC-relevant transcription factors [3]: profound inhibition of the majority
- ratios of cells with highest expression of CD133 ([4]; CMC2.24 treatment, FIG. 11C): did not induce an increase
- expression of p21 and p53 (p53 and p21): induced expression
- key TF proteins (c-Myc, Sox-2 and Oct4; both nuclear and cytoplasmic fractions): dramatic inhibition
- c-Myc and Sox2 expression (c-Myc, Sox-2 and Oct4; nuclear extracts of CD133+ and bulk PPT2 cells): moderate down-regulation

Compound: CC(=O)O[C@H]1C(=O)[C@@]2(C)[C@H]([C@H](OC(=O)c3ccccc3)[C@]3(O)C[C@H](OC(=O)[C@H](O)[C@@H](NC(=O)c4ccccc4)c4ccccc4)C(C)=C1C3(C)C)[C@]1(OC(C)=O)CO[C@@H]1C[C@@H]2O [Paclitaxel]
- number of CD133hi cells after treatment (CD133hi cells; 3D spheroids): 149%
- number of CD133hi cells after treatment (CD133hi cells; type I collagen cultures): 160%
- proliferation of the tumorigenic prostate cancer cells (CD133+ PPT2 cells): did not suppress proliferation
- proliferation of the tumorigenic prostate cancer cells (CD133+ PC3MM2 cells): did not suppress proliferation
- cell death ([2]; 10 μM, 48-72 hours): about 40%
- ratios of cells with highest expression of CD133 ([4]; 10 nM to 10 μM, 24 hours, concentration-dependent): increased the ratios
